Data taken from patent publication US20130338129A1, “METHOD OF TREATING REFRACTORY CANCER” (Niiki Pharma Inc., priority 2010, published 2013).
Like-named read-outs stand apart in the source and are kept apart here.

Tests used:
[1] = tested on: Human malignant melanoma cell line G361; experiment: MTT Cell Proliferation Assay, G361 cells; conditions: read-out: IC50 (concentration of agent that inhibits cell growth by 50%)
Experimental: (§1) Human lung carcinoma cell line A549 plates were seeded with 2,500 cells/well, and the cells were grown in Ham's F12 medium containing 10% FBS and 1% penicillin/strep/glutamine. Cultures were maintained in a 37° C. humidified 5% CO2/95% air atmosphere. Stock cultures were allowed to grow to 70-80% confluence for this study. […] 1000 μl of medium was removed from each well at 72 hours post-treatment and 10 μl MTT reagent was added to each well. The plates were incubated at 37° C. for 4 hours and then 100 μl of detergent was added. The plates were left overnight at room temperature in the dark and was read on a plate reader using SoftMax® Pro (version 5.2, Molecular Devices).
The absorbance data was analyzed as follows: Absorbance values were converted to Percent of Control and plotted against test agent concentrations for IC50 calculations using SoftMax® Pro (version 5.2, Molecular Devices). The plate blank signal average was subtracted from all wells prior to calculating the Percent of Control. Percent of Control values were calculated by dividing the absorbance values for each test well by the No Drug Control average (column 11 values; cells+vehicle control) and multiplying by 100. Plots of Compound Concentration versus Percent of Control were analyzed using the 4-parameter equation to obtain IC50 values and other parameters that describe the sigmoidal dose response curve. […]

[2] = tested on: human lung carcinoma cell line H1975; conditions: T790M mutation in the EGFR gene; Bao et al. 2009; cited from earlier work
[3] = tested on: Non-Small Cell Lung Cancer; experiment: Human clinical trial (US), refractory lung cancer patients; type: in vivo; conditions: 320 mg/m^2 i.v. day 1, 8, 15 of 28-day cycle, 4 cycles
Experimental: Patient No. 04-005 was a person with Stage IV Non-Small Cell Lung Cancer, moderately differentiated adenocarcinoma histology, diagnosed in April 2006. […] Combination chemotherapy with docetaxel, carboplatin and bevacizumab was administered between September and December 2006, with which the patient achieved a complete response. The patient suffered a disease recurrence and was started on sorafenib in April 2008. Sorafenib was discontinued in May 2008 due to disease progression. […] Between November 2009 and January 2010, the patient received gemcitibine.
Patient No. 04-011 was a person with Stage IIIB Non-Small Cell Lung Cancer, poorly differentiated adenocarcinoma histology, diagnosed in January 2005. Initial therapy consisted of carboplatin, gemcitibine and zoledronic acid from January 2005 through August 2005, with a partial response. […] In December 2005, chest radiotherapy with 54 Gy, with paclitaxel radiosensitization, was initiated and completed by February 2006. Through the remainder of 2006, the patient received a course of single agent erlotinib and a course of single agent pemetrexed; best response to these therapies is unknown. In January 2007, combination therapy with gemcitibine and navelbine was initiated, but their best response was disease progression. Experimental therapy with PTK787 (vatalanib) and imatinib was initiated in February 2007. […]

[4] = tested on: colorectal adenocarcinoma; experiment: Human clinical trial (UK), refractory colorectal cancer patient; type: in vivo; conditions: person, colorectal adenocarcinoma failed oxaliplatin, capecitibine, cetuximab, irinotecan, panitumumab; 500 mg/m^2 i.v. daily days 1-4 of 21-day cycle, 4 cycles
Text: The trial enrolled a person with colorectal adenocarcinoma, adenocystic histology, incompletely resected in September 2007. Their initial therapy consisted of oxaliplatin, capecitibine and cetuximab between October 2007 and February 2009 with best response of progressive disease. […] They then were changed to irinotecan and panitumumab, administered between April 2009 and October 2009, again with best response progressive disease.

[5] = tested on: human lung carcinoma cell line H1975; experiment: MTT Cell Proliferation Assay, H1975 cells; type: cell-based
Experimental: (“Test Drug”) was 41 μM (FIG. 1).
Table 2 below summarizes the activities on the two compounds in the different lung cancer cell lines tested.

[6] = tested on: Human lung carcinoma cell line A549; experiment: MTT Cell Proliferation Assay, A549 cells; type: cell-based; conditions: for IC50: A549 cells, MTT, 72 hours post-treatment; for IC50 Ratio (A549/H1975): ratio of IC50 in A549 to IC50 in H1975
Experimental: as §1
The absorbance data was analyzed as follows: Absorbance values were converted to Percent of Control and plotted against test agent concentrations for IC50 calculations using SoftMax® Pro (version 5.2, Molecular Devices). The plate blank signal average was subtracted from all wells prior to calculating the Percent of Control. Percent of Control values were calculated by dividing the absorbance values for each test well by the No Drug Control average (column 11 values; cells+vehicle control) and multiplying by 100. Plots of Compound Concentration versus Percent of Control were analyzed using the 4-parameter equation to obtain IC50 values and other parameters that describe the sigmoidal dose response curve.
The IC50 values for the test agents were estimated by curve-fitting the data using the following four parameter-logistic equation:
wherein “Top” is the maximal % of control absorbance (100%), “Bottom” is the minimal % of control absorbance at the highest agent concentration (down to zero), Y is the Percent of Control absorbance, X is the test agent Concentration, IC50 is the concentration of agent that inhibits cell growth by 50% compared to the control cells, n is the slope of the curve.

A549 cells = conditions: Denlinger et al. 2004; cited from earlier work

Which IC50 ([1]; Homo sapiens, G-361, 72 h) does the source give for `Cn1nnc2c(C(N)=O)ncn2c1=O` [temozolomide] here?
Its IC50 is 199 µM.

For `COc1cc2ncnc(Nc3ccc(F)c(Cl)c3)c2cc1OCCCN1CCOCC1` [gefitinib], which “sensitivity of H1975 cells” value [2] is on record?
Its value is “resistant”.

With `[Cl][Ru-]([Cl])([Cl])[Cl].[Na+].c1ccc2[nH]ncc2c1.c1ccc2[nH]ncc2c1` as the molecule, how does the best response ([3]; Patient No. 04-005, Stage IV NSCLC) read?
Its best response is “stable disease”.

What about the best response ([3]; Patient No. 04-011, Stage IIIB NSCLC) of the same molecule?
The best response was “stable disease”.

What about the best response [4] of the same molecule?
Its best response is “stable disease”.

And the IC50 ([5]; 72 hours post-treatment)?
The IC50 was 33.6 µM.

What about the IC50 ([1]; G361 melanoma cells, MTT, 72 hours post-treatment) of the same molecule?
Its IC50 is 41 µM.

And the IC50 [6]?
Its IC50 is 9.9 µM.

What about the “IC50 Ratio (A549/H1975)” value [6] of the same molecule?
The value was 0.29.

For `Nc1ccn([C@@H]2O[C@H](CO)[C@@H](O)C2(F)F)c(=O)n1` [gemcitabine], which “sensitivity of A549 cells” value (A549 cells) is on record?
The value was “inherently resistant”.

With `CC(=O)O[C@H]1C(=O)[C@@]2(C)[C@H]([C@H](OC(=O)c3ccccc3)[C@]3(O)C[C@H](OC(=O)[C@H](O)[C@@H](NC(=O)c4ccccc4)c4ccccc4)C(C)=C1C3(C)C)[C@]1(OC(C)=O)CO[C@@H]1C[C@@H]2O` [Paclitaxel, paclitaxel] as the molecule, how does the IC50 ([5]; Homo sapiens, NCI-H1975, 72 hours post-treatment) read?
Its IC50 is 0.005 µM.

What about the IC50 ([6]; Homo sapiens) of the same molecule?
Its IC50 is 9.92 µM.

And the “IC50 Ratio (A549/H1975)” value [6]?
The value was 1984.

Which “sensitivity of H1975 cells” value [2] does the source give for `C#Cc1cccc(Nc2ncnc3cc(OCCOC)c(OCCOC)cc23)c1` [erlotinib] here?
Its value is “resistant”.
